Measurements: ChEMBL document CHEMBL5321198, “Identification, in-vitro anti-plasmodial assessment and docking studies of series of tetrahydrobenzothieno[2,3-d]pyrimidine-acetamide molecular hybrids as potential antimalarial agents” (Eur J Med Chem, 2023)

Tests used:
Plasmodium falciparum [1] = assay: Antimalarial activity against chloroquine resistant Plasmodium falciparum W2 infected in human erythrocytes assessed as inhibition of parasite growth incubated for 48 hrs by YOYO-1 dye based flow cytometric analysis; type: functional, organism-based; conditions: W2, 48 h
Plasmodium falciparum [2] = assay: Antimalarial activity against chloroquine sensitive Plasmodium falciparum 3D7 infected in human erythrocytes assessed as inhibition of parasite growth incubated for 48 hrs by YOYO-1 dye based flow cytometric analysis; type: functional, organism-based; conditions: 3D7, 48 h
Plasmodium falciparum [3] = assay: Resistance index, ratio of IC50 for antimalarial activity against chloroquine resistant Plasmodium falciparum W2 infected in human erythrocytes to IC50 for antimalarial activity against chloroquine sensitive Plasmodium falciparum 3D7 infected in human erythrocytes; type: functional
MDA-MB-231 = assay: Cytotoxicity against human MDA-MB-231 cells incubated for 24 hrs by MTT assay; type: functional, cell-based; conditions: MDA-MB-231, 24 h
A549 = assay: Cytotoxicity against human A549 cells incubated for 24 hrs by MTT assay; type: functional, cell-based; conditions: A549, 24 h
[4] = Cytotoxicity against human HPL1D cells incubated for 24 hrs by MTT assay; type: toxicity, cell-based
[5] = Selectivity index, ratio of IC50 for cytotoxicity against human HPL1D cells to IC50 for antimalarial activity against chloroquine resistant Plasmodium falciparum W2 infected in human erythrocytes; type: toxicity, cell-based; conditions: read-out: Ratio IC50
[6] = Selectivity index, ratio of IC50 for cytotoxicity against human A549 cells to IC50 for antimalarial activity against chloroquine resistant Plasmodium falciparum W2 infected in human erythrocytes; type: functional
[7] = Selectivity index, ratio of IC50 for cytotoxicity against human MDA-MB-231 cells to IC50 for antimalarial activity against chloroquine resistant Plasmodium falciparum W2 infected in human erythrocytes; type: functional
Erythrocyte [8] = assay: Cytotoxicity against human erythrocyte at 3 to 100 uM incubated for 3 hrs by microplate reader assay; type: toxicity, cell-based; conditions: dose 3-100 µM
Erythrocyte [9] = assay: Hemolytic activity in human erythrocyte assessed as hemolysis at 25 uM incubated for 3 hrs by microplate reader assay; type: toxicity, cell-based

| SMILES | IC50 (Plasmodium falciparum [1]) | IC50 (Plasmodium falciparum [2]) | Ratio IC50 (Plasmodium falciparum [3]) | IC50 (MDA-MB-231) | IC50 (A549) | IC50 at 24 h [4] | selectivity ratio [5] | Ratio IC50 [6] | Ratio IC50 [7] | Activity (Erythrocyte [8]) | Activity (Erythrocyte [9]) |
| --- | --- | --- | --- | --- | --- | --- | --- | --- | --- | --- | --- |
| COc1ccc(NC(=O)C(c2ccc(OC(F)(F)F)cc2)N2CCN(c3ncnc4sc5c(c34)CCCC5)CC2)cc1 (centres undefined) | 61 nM | 888 nM | 0.068 | 460 nM | 370 nM | 28700 nM | 472 | 6.08 | 7.56 | Non-Toxic | Toxic |
| O=C(O)C(c1ccc(OC(F)(F)F)cc1)N1CCN(c2ncnc3sc4c(c23)CCCC4)CC1 (centres undefined) | > 10000 nM |  |  |  |  |  |  |  |  |  |  |
| COc1ccc(NC(=O)C(c2ccc(Cl)c(Cl)c2)N2CCN(c3ncnc4sc5c(c34)CCCC5)CC2)cc1 (centres undefined) | 68 nM | 933 nM | 0.073 | 740 nM | 810 nM | 31300 nM | 460 | 11.91 | 10.88 | Non-Toxic | Toxic |
| COc1ccc(NC(=O)C(c2ccc(F)c(F)c2)N2CCN(c3ncnc4sc5c(c34)CCCC5)CC2)cc1 (centres undefined) | 133 nM | 728 nM | 0.183 | 310 nM | 750 nM | 27200 nM | 205 | 5.64 | 2.33 | Non-Toxic | Toxic |
| Cc1ccc(C(C(=O)O)N2CCN(c3ncnc4sc5c(c34)CCCC5)CC2)cc1 (centres undefined) | 8520 nM |  |  |  |  |  |  |  |  |  |  |
| O=C(O)C(c1ccc(Cl)c(Cl)c1)N1CCN(c2ncnc3sc4c(c23)CCCC4)CC1 (centres undefined) | > 10000 nM |  |  |  |  |  |  |  |  |  |  |
| COc1ccc(NC(=O)C(c2ccc(C)cc2)N2CCN(c3ncnc4sc5c(c34)CCCC5)CC2)cc1 (centres undefined) | 268 nM | 692 nM | 0.387 |  |  |  |  |  |  | Non-Toxic | Toxic |
| O=C(O)C(c1ccc(C(F)(F)F)cc1)N1CCN(c2ncnc3sc4c(c23)CCCC4)CC1 (centres undefined) | 6630 nM |  |  |  |  |  |  |  |  |  |  |
| COc1ccc(NC(=O)C(c2ccc(F)cc2)N2CCN(c3ncnc4sc5c(c34)CCCC5)CC2)cc1 (centres undefined) | 171 nM | 1220 nM | 0.173 |  |  |  |  |  |  | Non-Toxic | Toxic |
| COc1ccc(NC(=O)C(c2ccc(OC)cc2)N2CCN(c3ncnc4sc5c(c34)CCCC5)CC2)cc1 (centres undefined) | 187 nM | 698 nM | 0.268 |  |  |  |  |  |  | Non-Toxic | Toxic |
| COc1ccc(NC(=O)C(c2ccc(C(F)(F)F)cc2)N2CCN(c3ncnc4sc5c(c34)CCCC5)CC2)cc1 (centres undefined) | 56 nM | 837 nM | 0.067 | 110 nM | 80 nM | 39900 nM | 716 | 1.43 | 1.97 | Non-Toxic | Toxic |
| COc1ccc(C(C(=O)O)N2CCN(c3ncnc4sc5c(c34)CCCC5)CC2)cc1 (centres undefined) | > 10000 nM |  |  |  |  |  |  |  |  |  |  |
| O=C(O)C(c1ccc(F)c(F)c1)N1CCN(c2ncnc3sc4c(c23)CCCC4)CC1 (centres undefined) | > 10000 nM |  |  |  |  |  |  |  |  |  |  |
| O=C(O)C(c1ccc(F)c(Cl)c1)N1CCN(c2ncnc3sc4c(c23)CCCC4)CC1 (centres undefined) | > 10000 nM |  |  |  |  |  |  |  |  |  |  |
| COc1ccc(NC(=O)C(c2ccc(F)c(Cl)c2)N2CCN(c3ncnc4sc5c(c34)CCCC5)CC2)cc1 (centres undefined) | 125 nM | 1080 nM | 0.116 | 520 nM | 430 nM | 36100 nM | 288 | 3.43 | 4.15 | Non-Toxic | Toxic |
| O=C(O)C(c1ccc(F)cc1)N1CCN(c2ncnc3sc4c(c23)CCCC4)CC1 (centres undefined) | > 10000 nM |  |  |  |  |  |  |  |  |  |  |
| COc1cccc2c1C(=O)c1c(O)c3c(c(O)c1C2=O)C[C@@](O)(C(=O)CO)C[C@@H]3O[C@H]1C[C@H](N)[C@H](O)[C@H](C)O1 [DOXORUBICIN] |  |  |  | 5800 nM |  |  |  |  |  |  |  |
